Results: PubChem BioAssay AID278 (DTP/NCI, 2004)
“And” between values parts separate entries of the source, which are not always exact repeats. Equal values may be shown once. Results filed as inconclusive are left out.

System: nude mice, A549 intrarenal xenograft, tumor weight change
Assay: NCI In Vivo Anticancer Drug Screen. Data for tumor model A549 Human Adenocarcinoma of Lung with characteristics of Type II Alveolar Epithelial cells (intrarenal inoculation) in NU/NU BALB/C (nude) mice
Conditions: endpoint: mean tumor weight change, schedule: Q04DX003 (ip), higher = larger tumour
In short: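 Mice bearing transplantable tumors were treated and survival or tumor size recorded. Values are given as treated-group measurement divided by vehicle-control measurement (T/C).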

Structure (SMILES): Cc1ccc(C(=O)NC2C(=O)NC(C(C)C)C(=O)N3CCCC3C(=O)N(C)CC(=O)N(C)C(C(C)C)C(=O)OC2C)c2c1Oc1c(c(C(=O)NC3C(=O)NC(C(C)C)C(=O)N4CCCC4C(=O)N(C)CC(=O)N(C)C(C(C)C)C(=O)OC3C)c3nc(-c4ccccc4)c(=O)oc3c1C)N2 (centres undefined)
- T/C (dose: 0.36 mg/kg/injection, vehicle: water): 101 % of control
- T/C (dose: 0.5 mg/kg/injection, vehicle: water): 61 % of control
- T/C (dose: 0.6 mg/kg/injection, vehicle: water): 94 % of control
- T/C (dose: 1.67 mg/kg/injection, vehicle: water): 62 % of control

Structure (SMILES): N#CC(C#N)=NNc1ccc2cn[nH]c2c1
- T/C (dose: 50.0 mg/kg/injection, vehicle: Klucel (hydroxypropylcellulose) (HPC)): -6 % of control
- T/C (dose: 100.0 mg/kg/injection, vehicle: Klucel (hydroxypropylcellulose) (HPC)): 117 % of control and 124 % of control

Structure (SMILES): O=C1CN(CO)C(=O)N1CO
- T/C (dose: 50.0 mg/kg/injection, vehicle: saline): 172 % of control
- T/C (dose: 400.0 mg/kg/injection, vehicle: saline): 120 % of control

Structure (SMILES): CCOC(=O)Nc1cc2c(c(N)n1)N=C(c1ccc3ccccc3c1)CN2
- T/C (dose: 7.5 mg/kg/injection, vehicle: saline with Tween-80): 82 % of control
- T/C (dose: 15.0 mg/kg/injection, vehicle: saline with Tween-80): 113 % of control
- T/C (dose: 30.0 mg/kg/injection, vehicle: saline with Tween-80): 63 % of control
- T/C (dose: 60.0 mg/kg/injection, vehicle: saline with Tween-80): 55 % of control

Structure (SMILES): COc1cc(C(C)c2cc3c(cc2OCCO)OCO3)cc(OC)c1OC (centres undefined)
- T/C (dose: 125.0 mg/kg/injection, vehicle: suspension in saline): 117 % of control
- T/C (dose: 250.0 mg/kg/injection, vehicle: suspension in saline): 72 % of control
